Data set [1] concerns L1210 leukemia. Conditions: in words, literature; cited from earlier work.
Data set [2] has as its system Ames bacterial tester strains TA98, TA100, TA1537. It is filed as cell-based. From the text: As clinical cancer chemotherapy improves, and patients live symptom free for longer intervals, it is obviously important that the agents employed are not carcinogenic and capable of disease re-induction.
The test system of data set [3] is L1210 leukemia (sc). Nature of the data set: Antileukemic screen, L1210 tumour sc, drug ip qd 1-5. The conditions noted are these: for ILS (increase in life span at the LD10): Strain F1, Schedule qd 1-5, at LD10, Table II; for LD10: Strain F1, Schedule qd 1-5, drug ip, Table II; for D40 (drug dose necessary to provide 40% ILS): Strain F1, Schedule qd 1-5, Table II. It is filed as in vivo, mice (C3H/DBA2 F1 hybrids). Also noted: LD10 / D40 (drug dose necessary to provide 40% ILS): unit not given here. The source says:
(§1) In initial screening a standard drug administration schedule has been employed (ip, qd 1-5) and mice (C3 H/DBA2 F1 hybrids) bred in the laboratory, receive a standard tumor inoculum of 10^5 L1210 cells ip on day 0. After range finding experiments, an LD10 dose has then been derived employing doses separated by 0.05 log.dose units, an acceptable soluble drug formulation (B. F. Cain, R. N. Seelye and G. J. Atwell, J. Med. Chem., 17, 922-930 (1974)) and groups of six tumored mice at each dose level. Deaths occuring before day 8 have been taken as resulting from drug toxicity. From the linear regression relating percent probit-mortality and the logarithms of the corresponding doses, an LD10 value has been derived. Profiles of antileukemic activity have been obtained employing doses separated by 0.09 log.dose intervals. Significant percentage increases in life span of leukemic animals, obtained at and below the LD10 dose, have been linearly correlated with the logarithms of the corresponding doses. The increase in life span (ILS) specified by the life extension-log.dose regression line at the measured LD10 provides a representative measure of antileukemic effectiveness at a standard host load in toxicity (W. A. Denny and B. F. Cain, J. Med. Chem., 21, 430-437 (1978)). For congener selection ILS has been employed as a measure of factor (1) above and LD10 for factor (2). Desirable drug pharmacokinetic properties (factor (3)) have been screened for by employing standard ip drug administration and implanting tumor more remotely; either subcutaneously (sc) or intracerabrally (ic) (B. F. Cain and G. J. Atwell Europ J. Cancer, 10, 539 549 (1974), B. F. Cain and G. J. Atwell, J. Med. Chem., 19 1409-1416 (1976)).
(§2) ILS and LD10=as defined above.
(§3) D40=the drug dose necessary to provide 40% ILS in standard L1210 assays.

In data set [4] the test system is L1210 leukemia (ic). Nature of the data set: Intracerebrally implanted L1210. Format: in vivo, mice. Conditions: in words.
From the text: as §1

Data set [5] deals with poly. dGC. Nature of the data set: Drug-DNA binding, poly.dGC (GC). The source says: (§4) CT, AT and GC=are relative, inverse measures of compound--DNA binding for calf thymus DNA (CT); poly.dAT (AT) and poly. dGC (GC). (B. C. Baguley and E. M. Falkenhaugh, Nucleic Acids Res., 5, 161-171 (1978), B. F. Cain, B. C. Baguley and W. A. Denny, J. Med. Chem., 21, 658-668 (1978)).
In data set [6] the test system is calf thymus DNA. Nature of the data set: Drug-DNA binding, calf thymus DNA (CT).
From the text: as §4

Data set [7] relates to TA1537 strain of Salmonella typhimurium. Nature of the data set: Mutagenicity assay in TA1537 strain. Conditions: for Mutagenicity D50: Salmonella typhimurium TA1537; for Mutagenicity M50 (percentage mutation frequency at the D50 (×10^4)): Salmonella typhimurium TA1537, at the D50. The source says:
The quantitative measures of mutagenicity employed in the present studies are those detailed in L. R. Ferguson and W. A. Denny, J. Med. Chem., 22, 251-255 (1979) of early QSAR developed in this area.
D50 and M50=quantitative measures derived from mutagenicity assays in TA1537 strain of Salmonella typhimurium, defined in L. R. Ferguson and W. A. Denny, J. Med. Chem., 22, 251-255 (1979). (The values of M50 are percentage mutation frequencies at the D50 (×10^4).)

The test system of data set [8] is L1210 leukemia (ip). Nature of the data set: Antileukemic screen, L1210 tumour ip, drug ip qd 1-5. Also noted: LD10 / D40 (drug dose necessary to provide 40% ILS): unit not given here. It is filed as in vivo, mice (C3H/DBA2 F1 hybrids). The conditions noted are these: for ILS Observed: L1210-ip, qd 1-5, Table III; for ILS (increase in life span at the LD10) / LD10 / D40 (drug dose necessary to provide 40% ILS): Tumour L1210-ip, Table II; for ILS (increase in life span at the LD10): Strain F1, Schedule qd 1-5, at LD10; for LD10: Strain F1, Schedule qd 1-5, drug ip; for D40 (drug dose necessary to provide 40% ILS): Strain F1, Schedule qd 1-5; for Antitumour activity in leukemic animals / Dose potency: in words.
From the text: as §1, §2, §3

The nature of data set [9]: Lipophilic-hydrophilic balance by reversed phase chromatography. The conditions noted are these: linearly related to 1-octanol/H2O partition coefficients. It is filed as physicochemical. From the text:
Rm =a measure of the compound's lipophilichydrophilic balance from reversed phase chromatography. Rm is linearly related to partition coefficients obtained in the 1-octanol/H2 O system.

A short description of data set [10]: Basic pKa measured spectrophotometrically. Conditions: 20% aqueous dimethylformamide, spectrophotometric; read-out: pK (basic pKa). It is filed as physicochemical.
For data set [11], the system named is poly.dAT. Nature of the data set: Drug-DNA binding, poly.dAT (AT).
From the text: as §4

Data set [12] can be described thus: Water solubility / ease of formulation. Format: physicochemical. Conditions: in words.
The subject of data set [13] is experimental tumour systems. Conditions: in words, literature; cited from earlier work.

Data on 6 molecules can be found in US4472582A, “3,5-Disubstituted-4'-(9-acridinylamino)-methane-sulfon-m-anisidide compounds having antitumor properties” (Development Finance Corporation of New Zealand, priority 1979, dated 1984).

Turning to `CS(=O)(=O)Nc1ccc(Nc2c3ccccc3nc3ccccc23)cc1` [AMSA, 4'-(9-acridinylamino) methanesulfonanilide], the “Antitumour activity in L1210 leukemia” value in data set [1] was “high antitumour activity”.
In the case of `CNC(=O)c1cccc2c(Nc3ccc(NS(C)(=O)=O)cc3OC)c3ccc(C)cc3nc12` [Compound 1], in data set [2], the Direct mutagenicity entry is recorded as “lack significant mutagenic activity”. Also, in data set [3], the “ILS (increase in life span at the LD10)” value is 30% and the LD10 was 10. The “Inhibition of intra-cerebrally implanted L1210” value (“Inhibition” below) in [4] is “inhibit intra-cerebrally implanted L1210”. The “GC (relative, inverse measure of compound-DNA binding)” value in data set [5] is given as 2.76. The “CT (relative, inverse measure of compound-DNA binding)” value in data set [6] was 5.53. For the same molecule, in data set [7], the “Mutagenicity D50” value is reported as 15.3 and the “Mutagenicity M50 (percentage mutation frequency at the D50 (×10^4))” value is recorded as 1.0 % (×10^4). Further, in [8], the “ILS Observed” value was determined as 200%, the “ILS (increase in life span at the LD10)” value came out at 200%, the LD10 was determined as 12 and the “D40 (drug dose necessary to provide 40% ILS)” value came to 3. Besides, in data set [8], the “Antitumour activity in leukemic animals” value is on record as “unusually high antitumour activity in leukemic animals” and the Dose potency result is “good dose potency”. In addition, in data set [8] (listed as 3-methyl-5-methylcarboxamido), the “Antitumour activity in leukemic animals” value is given as “high experimental antitumor activity”. Further, the Rm (reversed-phase chromatographic lipophilicity) in data set [9] came to 0.32. The pKa in data set [10] came to 6.6. In data set [11], the “AT (relative, inverse measure of compound-DNA binding)” value stood at 4.74. Moreover, the Ease of formulation entry in data set [12] is reported as “easily formulable”.
`COc1cc(NS(C)(=O)=O)ccc1Nc1c2ccc(C)cc2nc2c(C(=O)NCC(N)=O)cccc12` [Compound 2]: in data set [3], the “D40 (drug dose necessary to provide 40% ILS)” value is reported as 60, the “ILS (increase in life span at the LD10)” value is 50% and the LD10 is given as 120. For the same molecule, the “GC (relative, inverse measure of compound-DNA binding)” value in data set [5] amounted to 1.84. Also, the “CT (relative, inverse measure of compound-DNA binding)” value in data set [6] was found to be 6.53. Moreover, in [7], the “Mutagenicity D50” value worked out at 27.6 and the “Mutagenicity M50 (percentage mutation frequency at the D50 (×10^4))” value was 0 % (×10^4). Also, in data set [8], the “ILS Observed” value is on record as 200%, the “ILS (increase in life span at the LD10)” value amounted to 200%, the LD10 was 120 and the “D40 (drug dose necessary to provide 40% ILS)” value came to 10. Besides, the “Antitumour activity in leukemic animals” value in [8] is recorded as “unusually high antitumour activity in leukemic animals”. The same molecule came in with a Rm (reversed-phase chromatographic lipophilicity) in data set [9] of -0.32. In data set [10], the pKa was 6.58. Also, the “AT (relative, inverse measure of compound-DNA binding)” value in data set [11] was 6.53.
In the case of `COc1cc(NS(C)(=O)=O)ccc1Nc1c2ccc(Cl)cc2nc2c(C(=O)NCC(N)=O)cccc12` [Compound 3], in data set [3], the “D40 (drug dose necessary to provide 40% ILS)” value came to 175, the “ILS (increase in life span at the LD10)” value is given as 65% and the LD10 is given as 330. Moreover, the “GC (relative, inverse measure of compound-DNA binding)” value in [5] was 4.91. For the same molecule, in data set [7], the “Mutagenicity D50” value amounted to 12.4 and the “Mutagenicity M50 (percentage mutation frequency at the D50 (×10^4))” value is 0 % (×10^4). Moreover, in data set [8], the “ILS Observed” value amounted to 120%, the “ILS (increase in life span at the LD10)” value was 120%, the LD10 is given as 300 and the “D40 (drug dose necessary to provide 40% ILS)” value was 25. Also, the Rm (reversed-phase chromatographic lipophilicity) in data set [9] is -0.23. Further, the pKa in data set [10] is 5.71.
`CNC(=O)c1ccc2c(Nc3ccc(NS(C)(=O)=O)cc3OC)c3cccc(C)c3nc2c1` [Compound 4]: the Direct mutagenicity result in data set [2] is “lack significant mutagenic activity”. In data set [3], the “D40 (drug dose necessary to provide 40% ILS)” value is 15, the “ILS (increase in life span at the LD10)” value was determined as 100% and the LD10 stood at 25. Moreover, the “Inhibition” value in data set [4] is on record as “inhibit intra-cerebrally implanted L1210”. Also, in [7], the “Mutagenicity D50” value came out at 43.8 and the “Mutagenicity M50 (percentage mutation frequency at the D50 (×10^4))” value is 0.16 % (×10^4). Moreover, in [8], the “ILS Observed” value came out at 150%, the “ILS (increase in life span at the LD10)” value was 150%, the LD10 is reported as 20 and the “D40 (drug dose necessary to provide 40% ILS)” value came to 1. In addition, the Dose potency result in data set [8] is on record as “good dose potency”. Moreover, the “Antitumour activity in leukemic animals” value in [8] (listed as 5-methyl-3-methylcarboxamido) is reported as “high experimental antitumor activity”. In addition, the Rm (reversed-phase chromatographic lipophilicity) in [9] was -0.17. Besides, the pKa in data set [10] was 6.64. For the same molecule, the “AT (relative, inverse measure of compound-DNA binding)” value in data set [11] was found to be 3.2. The Ease of formulation entry in [12] is listed as “easily formulable”.
`COc1cc(NS(C)(=O)=O)ccc1Nc1c2ccccc2nc2ccccc12` [m-AMSA, 4'-(9-acridinylamino)-methanesulfon-m-anisidide]: in [1], the “Antitumour activity in L1210 leukemia” value is “highly effective in treating L1210 leukemia”. The “Activity in other experimental tumour systems” value in data set [13] is “has shown promise in a number of other experimental tumour systems”. Besides, in data set [3], the “D40 (drug dose necessary to provide 40% ILS)” value was determined as 8.0, the “ILS (increase in life span at the LD10)” value was found to be 45% and the LD10 was 10. Also, the “Inhibition” value in data set [4] is given as “does not”. For the same molecule, in data set [8], the “ILS (increase in life span at the LD10)” value turned out to be 111%, the LD10 was found to be 9 and the “D40 (drug dose necessary to provide 40% ILS)” value was found to be 2.5.
